One may read the logP as the decadic logarithm of the partition coefficient of the neutral form, usually between octanol and water.

The nature of series [1]: logP (physical data of the preparation examples). The series is classed as physicochemical.
For the next series, the system named is Phytophthora infestans. The series is classed as in vivo. The conditions noted are these: Tomate, protektiv; for Wirkungsgrad in %: Aufwandmenge an Wirkstoff 50 g/ha, evaluated 3 days after inoculation, 0 % = as control, 100 % = no infestation; for Wirkungsgrad: Wirkstoffaufwandmenge 50 g/ha, summary sentence in the text for both compounds.

Molecules are shown by their SMILES.

Regarding `COc1ccc(CCNC(=O)C(=O)c2ccc3c(c2)CCCCC3)cc1OC` [Beispiel 4], the logP in series [1] is 3.57.
For `COc1ccc(CCNC(=O)C(O)c2ccc3c(c2)CCC3)cc1OC` (stereo not shown) [Beispiel 5], in series [1], the logP turned out to be 2.19.
The same measure, in the same setting: under `COc1ccc(CCNC(=O)C(O)c2ccc3c(c2)CCCC3)cc1OC` (stereo not shown) [Beispiel 2, N-[2-(3,4-Dimethoxyphenyl)-ethyl]-2-hydroxy-2-(5,6,7,8-tetrahydronaphthalin-2-yl)-acetamid] stands 2.43.
As to `COc1ccc(CCNC(=O)C(=O)c2ccc3c(c2)CCC3)cc1OC` [Beispiel 3], in the series on Phytophthora infestans, the Wirkungsgrad in % is reported as 90% and the Wirkungsgrad is listed as 90 -95%. Further, the logP in series [1] was found to be 2.92.
For `COc1ccc(CCNC(=O)C(=O)c2ccc3c(c2)CCCC3)cc1OC` [Beispiel 1, N-[2-(3,4-Dimethoxyphenyl)-ethyl]-2-oxo-2-(5,6,7,8-tetrahydronaphthalin-2-yl)-acetamid] the same measures were 95%, 90 -95% and 3.24.
In turn, `COc1ccc(CCNC(=O)C(O)c2ccc3c(c2)CCCCC3)cc1OC` (stereo not shown) [Beispiel 6] registered a logP in series [1] of 2.7.

(Values after EP0934252B1, “AMIDE DERIVATIVES AND THEIR USE AS PESTICIDES” (BAYER AG, priority 1996, dated 1998).)
